In US9540397B2, “BACE1 inhibitors” (Hoffmann-La Roche Inc., priority 2014, dated 2017) one finds IC50 and response vs control in vivo data, which are given here for 14 compounds.

SMILES strings stand for the structures.

In assay [1] the target is T1, BACE1 (Homo sapiens, UniProt P56817).
T1 construct: endogenous in cells; host or cells: HEK293 APP cells
Kind of assay: Cellular Aβ-lowering assay (Abeta 40 AlphaLISA, HEK293 APP cells). In kind it is cell-based. Conditions: 18-20 hrs incubation, Aβ40 in culture supernatant, read-out: BACE1 cell act. Aβ40 IC50. The method, boiled down:
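APP-expressing HEK293 cells exposed to compounds for 18-20 h at 37° C. (1% DMSO final). Secreted Aβ1-40 in supernatant measured by AlphaLISA (615 nm emission), expressed as percent of DMSO-only signal, and IC50 fitted.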

Assay [2] concerns Aβ40 in brain of wild-type mice. Briefly: Lowering of Aβ40 in brain of wild-type mice. Conditions: Mus musculus, po; female C57Bl/6J mice, 30 mg/kg per os, 4 h; brain Aβ40 related to the value in the vehicle group; read-out: Aβ40 (wt mice, brain). Type of assay: in vivo. How it is done: Lowering of Aβ40 in Brain of Wild-Type Mice:
Animals and Housing Conditions.
Animals were maintained in a 12/12 h light/dark cycle, with lights starting at 6 a.m., and experiments were conducted during the light phase. Animal housing and experimental procedures were in line with ethical and legal guidelines and were authorized by local veterinary authorities.
Experiment. Female C57Bl/6J mice were treated with a dose of 30 mg/kg of the compounds, 3-4 animals per treatment group. The test compound was dissolved in 5% EtOH, 10% Solutol, and was applied per os at 10 mL/kg. After 4 h, the animals were sacrificed and brain and plasma were collected. The brain was cut into halves and immediately frozen on dry ice. Brain was used for measurement of Aβ40 and plasma was used for determination of compound exposure. […] Brain tissue was homogenized in 2% DEA buffer in a Roche MagnaLyser (20″, 4000 rpm) and subsequently centrifuged for 1 h at 100000 g. DEA was reduced to 0.2% in 50 mM NaCl and one-half of the DEA lysate was passed over an Oasis Solid phase extraction plate (Waters; cat. no. 186000679), which had been activated with MeOH and equilibrated in dH2O (1 mL each). After washes in 10% and 30% MeOH (1 mL each), the Aβ-peptides were eluted in 0.8 mL of 2% NH4OH in 90% MeOH. The eluate was dried over a N2 flow, and the dried sample was reconstituted in 30 μL of AlphaLISA assay buffer. Aβ40 was determined by an AlphaLISA assay (Perkin-Elmer). In a white 96-well, half area microplate (Perkin-Elmer cat. no. 6005561), 20 μL of the reconstituted sample were mixed with 5 μL of biotinylated BAP-24 (specific for C-terminus of Aβ40) (Brockhaus, M.; Grunberg, J.; Rohrig, S.; Loetscher, H.; Wittenburg, N.; Baumeister, R.; Jacobsen, H.; Haass, C. Caspasemediated cleavage is not required for the activity of presenilins in amyloidogenesis and NOTCH signaling. NeuroReport 1998, 9, 1481-1486.) stock=4.4 mg/mL, f.c.5.5 μg/mL), and 5 μL 252Q6 acceptor beads (252Q6 antibody, Invitrogen AMB0062) had been previously conjugated with AlphaLISA Acceptor beads (Perkin-Elmer cat. no. 6772002); final dilution 1:500). The mix was incubated for 1 h at RT in the dark. Then 20 μL of Streptavin-coated Donor Beads (Perkin-Elmer cat. no. 6760002, final dilution 1:125) were added and this final mix was incubated in the dark for another 30 min at RT before RFU was measured in an AlphaScreen Reader (Perkin-Elmer Envision 2104). The value obtained for Aβ40 in the treated animals was related to the value in the vehicle group and is given in %. Alternatively a commercial ELISA was used for Aβ40 determination (Wako ELISA: (“Human/Rat β Amyloid (40) ELISA kit Wako II”; cat nr. 294-64701) following the manufacture's instruction. Also here the Aβ-lowering efficacy was calculated as percentage of the vehicle group.

T1 sequence (P56817 46-501): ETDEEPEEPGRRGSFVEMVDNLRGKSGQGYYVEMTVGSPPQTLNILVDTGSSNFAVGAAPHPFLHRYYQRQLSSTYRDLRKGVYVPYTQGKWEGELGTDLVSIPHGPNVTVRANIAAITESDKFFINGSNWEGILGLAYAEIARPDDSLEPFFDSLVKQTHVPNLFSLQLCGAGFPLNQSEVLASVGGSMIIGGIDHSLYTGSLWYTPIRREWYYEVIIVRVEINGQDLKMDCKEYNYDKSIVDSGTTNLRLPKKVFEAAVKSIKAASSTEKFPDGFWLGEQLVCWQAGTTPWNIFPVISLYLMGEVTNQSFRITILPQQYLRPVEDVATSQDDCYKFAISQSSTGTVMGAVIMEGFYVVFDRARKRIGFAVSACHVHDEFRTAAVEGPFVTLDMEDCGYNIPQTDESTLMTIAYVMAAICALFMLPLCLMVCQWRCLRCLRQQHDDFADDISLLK

Turning to `CC1(C)C(N)=N[C@](C)(c2nc(NC(=O)c3ncc(C#N)cc3Cl)ccc2F)[C@H]2CC3(CC3)CN=[S@@]21=O` [Example 49AA, N-(6-((4aR,5R,9R)-7-amino-5,8,8-trimethyl-9-oxido-4,4a,5,8-tetrahydro-2H-spiro[[1,4]-thiazino[2,1-f][1,2]thiazine-3,1′-cyclopropan]-5-yl)-5-fluoropyridin-2-yl)-3-chloro-5-cyanopicolinamide], the IC50 (as a rule, the concentration at which inhibition is half-maximal) in assay [1] was 0.1 nM. Also, the response vs control in vivo at 30 mg/kg in assay [2] is 106%.
The matching figures for `COc1cnc(C(=O)Nc2ccc(F)c([C@@]3(C)N=C(N)C(C)(C)[S@@]4(=O)=NCC[C@@H]34)n2)cn1` [Example 16AB, N-(6-((3aS,4R,8R)-6-amino-4,7,7-trimethyl-8-oxido-3,3a,4,7-tetrahydro-2H-isothiazolo[1,5-a][1,4]thiazin-4-yl)-5-fluoropyridin-2-yl)-5-methoxypyrazine-2-carboxamide]: 8.6 nM and 89%.
Taken in the same sequence, the figures for `Cc1cc(C#N)cnc1C(=O)Nc1ccc(F)c([C@@]2(C)N=C(N)C(C)(C)[S@@]3(=O)=NCC4(CC4)C[C@H]23)n1` [Example 48AA, N-(6-((4aR,5R,9R)-7-amino-5,8,8-trimethyl-9-oxido-4,4a,5,8-tetrahydro-2H-spiro[[1,4]thiazino[2,1-f][1,2]thiazine-3,1′-cyclopropan]-5-yl)-5-fluoropyridin-2-yl)-5-cyano-3-methylpicolinamide] were 0.3 nM and 61%.
The matching figures for `CC1(C)C(N)=N[C@](C)(c2nc(NC(=O)c3ccc(OC(F)F)cn3)ccc2F)[C@@H]2CCN=[S@@]21=O` [Example 14AB, N-(6-((3aS,4R,8R)-6-amino-4,7,7-trimethyl-8-oxido-3,3a,4,7-tetrahydro-2H-isothiazolo[1,5-a][1,4]thiazin-4-yl)-5-fluoropyridin-2-yl)-5-(difluoromethoxy)picolinamide]: 6.3 nM and 61%.
For the compound `CC1(C)C(N)=N[C@](C)(c2nc(NC(=O)c3ncc(OC(F)F)cc3Cl)ccc2F)[C@@H]2CCN=[S@@]21=O` [Example 28AB, N-(6-((3aS,4R,8R)-6-amino-4,7,7-trimethyl-8-oxido-3,3a,4,7-tetrahydro-2H-isothiazolo[1,5-a][1,4]thiazin-4-yl)-5-fluoropyridin-2-yl)-3-chloro-5-(difluoromethoxy)picolinamide], the IC50 in assay [1] came out at 2.8 nM. Also, the response vs control in vivo at 30 mg/kg in assay [2] turned out to be 100%.
As to `Cc1cc(C#N)cnc1C(=O)Nc1ccc(F)c([C@@]2(C)N=C(N)C(C)(C)[S@@]3(=O)=NCC[C@@H]23)n1` [Example 9AB, N-(6-((3aS,4R,8R)-6-amino-4,7,7-trimethyl-8-oxido-3,3a,4,7-tetrahydro-2H-isothiazolo[1,5-a][1,4]thiazin-4-yl)-5-fluoropyridin-2-yl)-5-cyano-3-methylpicolinamide], the IC50 in assay [1] is 0.6 nM. For the same compound, the response vs control in vivo at 30 mg/kg in assay [2] came to 40%.
In the case of `CC1(C)C(N)=N[C@](C)(c2nc(NC(=O)c3ccc(OCC(F)(F)C(F)F)cn3)ccc2F)[C@H]2CC(F)(F)CN=[S@@]21=O` [Example 36AA, N-(6-((4aR,5R,9R)-7-amino-3,3-difluoro-5,8,8-trimethyl-9-oxido-2,3,4,4a,5,8-hexahydro-[1,4]thiazino[2,1-f][1,2]thiazin-5-yl)-5-fluoropyridin-2-yl)-5-(2,2,3,3-tetrafluoropropoxy)-picolinamide], the IC50 in assay [1] came to 416 nM. The response vs control in vivo at 30 mg/kg in assay [2] stood at 84%.
The matching figures for `CC1(C)C(N)=N[C@](C)(c2nc(NC(=O)c3ccc(F)cn3)ccc2F)[C@H]2CC(F)(F)CN=[S@@]21=O` [Example 33AA, N-(6-((4aR,5R,9R)-7-amino-3,3-difluoro-5,8,8-trimethyl-9-oxido-2,3,4,4a,5,8-hexahydro-[1,4]thiazino[2,1-f][1,2]thiazin-5-yl)-5-fluoropyridin-2-yl)-5-fluoropicolinamide]: 90 nM and 83%.
The matching figures for `CC1(C)C(N)=N[C@](C)(c2nc(NC(=O)c3ccc(OCC(F)(F)C(F)F)cn3)ccc2F)[C@@H]2CCN=[S@@]21=O` [Example 15AB, N-(6-((3aS,4R,8R)-6-amino-4,7,7-trimethyl-8-oxido-3,3a,4,7-tetrahydro-2H-isothiazolo[1,5-a][1,4]thiazin-4-yl)-5-fluoropyridin-2-yl)-5-(2,2,3,3-tetrafluoropropoxy)picolinamide]: 146 nM and 100%.
Taken in the same sequence, the figures for `CC1(C)C(N)=N[C@](C)(c2nc(NC(=O)c3ccc(OC(F)F)cn3)ccc2F)[C@H]2CCCN=[S@@]21=O` [Example 7AA, N-(6-((4aR,5R,9R)-7-amino-5,8,8-trimethyl-9-oxido-2,3,4,4a,5,8-hexahydro-[1,4]thiazino[2,1-f][1,2]thiazin-5-yl)-5-fluoropyridin-2-yl)-5-(difluoromethoxy)picolinamide] were 2.7 nM and 65%.
As for `CC1(C)C(N)=N[C@](C)(c2nc(NC(=O)c3ncc(Cl)cc3Cl)ccc2F)[C@@H]2CCN=[S@@]21=O` [Example 29AB, N-(6-((3aS,4R,8R)-6-amino-4,7,7-trimethyl-8-oxido-3,3a,4,7-tetrahydro-2H-isothiazolo[1,5-a][1,4]thiazin-4-yl)-5-fluoropyridin-2-yl)-3,5-dichloropicolinamide], in assay [1], the IC50 came to 0.6 nM. For the same compound, in assay [2], the response vs control in vivo at 30 mg/kg was determined as 88%.
Regarding `CC1(C)C(N)=N[C@](C)(c2nc(NC(=O)c3ccc(OC(F)F)cn3)ccc2F)[C@H]2CC(F)(F)CN=[S@@]21=O` [Example 35AA, N-(6-((4aR,5R,9R)-7-amino-3,3-difluoro-5,8,8-trimethyl-9-oxido-2,3,4,4a,5,8-hexahydro-[1,4]thiazino[2,1-f][1,2]thiazin-5-yl)-5-fluoropyridin-2-yl)-5-(difluoromethoxy)picolinamide], the IC50 in assay [1] was determined as 87.4 nM. For the same compound, in assay [2], the response vs control in vivo at 30 mg/kg stood at 101%.
The matching figures for `Cc1cc(C#N)cnc1C(=O)Nc1ccc(F)c([C@@]2(C)N=C(N)C(C)(C)[S@@]3(=O)=NCCC[C@H]23)n1` [Example 1AA, N-(6-((4aR,5R,9R)-7-amino-5,8,8-trimethyl-9-oxido-2,3,4,4a,5,8-hexahydro-[1,4]thiazino[2,1-f][1,2]thiazin-5-yl)-5-fluoropyridin-2-yl)-5-cyano-3-methylpicolinamide]: 0.6 nM and 38%.
The matching figures for `Cc1cc(C#N)cnc1C(=O)Nc1ccc(F)c([C@@]2(C)N=C(N)C(C)(C)[S@@]3(=O)=NCC(F)(F)C[C@H]23)n1` [Example 32AA, N-(6-((4aR,5R,9R)-7-amino-3,3-difluoro-5,8,8-trimethyl-9-oxido-2,3,4,4a,5,8-hexahydro-[1,4]thiazino[2,1-f][1,2]thiazin-5-yl)-5-fluoropyridin-2-yl)-5-cyano-3-methylpicolinamide]: 1.2 nM and 53%.
